# Experimental data taken from patent US12466816B2, “Fused cyclic compound capable of degrading protein and use thereof” (Medshine Discovery Inc., priority 2019, dated 2025).
# Legend:
# [1] = test system: colorectal cancer cells and brain tumor cell lines; assay: Clone formation experiment; assay type: cell-based; details: 10 μM; some colorectal cancer cells and brain tumor cell lines
# Method: The effect of the compound on the monoclone-formation capacity of cells was examined. Cells were seeded in 6-well plates at low density (about 500 cells per well), 10 μM of WX106 was added for treatment, crystal violet staining (Beyotime Biotechnology, C0121) was performed when the cells grew into clones visible to the naked eye, and the number of clones was counted. All treatments were performed in at least three replicates.
# Hep3B cells = assay: Sensitivity of wild-type versus CRBN KO cells to WX106 (CCK-8); assay type: cell-based; details: 10 μM, 72 h
# Method: (§1) The sgRNA sequence targeting CRBN was inserted into lenti Crispr V2 plasmid, the virus was co-packaged with the packaging vectors psPAX2 and pVSVG, and the cells were infected; screening was performed with puromycin (Invitrogen, A1113803) and the knockout of CRBN was identified by Western blot; finally, the cell growth was detected to calculate the survival rate.
# WX106 (10 μM) was added to wild-type Hep3B cells and Hep3B CRBN KO (knockout) hybrid clone cells, respectively, and cell proliferation was detected by CCK-8 after 72 h.
# Hep3B and SNU182 cells = assay: Growth curves of stable CRBN knockout cell lines (pool); assay type: cell-based; details: 10 μM
# Method: as §1
# Stable CRBN knockout cell lines (pool) were established in Hep3B and SNU182 cells, respectively, and treated with WX106 (10 μM) or solvent; the growth of cells was detected at different time points and the growth curves were drawn.
# CK1α = biological target: T1, CK1α (Homo sapiens, UniProt P48729); assay: Detection of protein degradation by the drug (Western blot); assay type: cell-based; details: MOLT-4 cells
# T1 construct: endogenous in cells; host or cells: MOLT-4
# CRBN [2] = biological target: T2, CRBN (Homo sapiens, UniProt Q96SW2); assay: Thermal displacement experiment (CRBN thermal stability, Western blot); assay type: binding; design: endogenous in cells; details: 100 μM, 293T cell lysates, 56° C. and 59° C.
# Method: The experiment utilizes the principle that the binding of small molecular compounds to proteins can improve the thermal stability of proteins. 3×10^7 cells were collected and washed twice with phosphate buffered saline (PBS). 100×protease inhibitor cocktail (APEXBIO, K1007) was added to pre-cooled PBS to suspend the cells, and 500 μL of cell suspension was aliquoted into each 1.5 EP tube. The EP tube was placed in liquid nitrogen for quick freezing for 5 min and then transferred to a 26° C. water bath quickly; thereafter, the EP tube was transferred to a 4° C. environment when the liquid is half thawed, until it is completely thawed. This freeze-thaw procedure was performed thrice to allow complete protein precipitation from the cells. The frozen-thawed product was centrifuged at 4° C. for 20 min, the supernatant was aspirated and mixed, and then aliquoted into 1.5 mL EP tubes, and DMSO and WX106 were added respectively to adjust the concentration of WX106 in the solution to 100 μM. […] After the heat shock at all temperatures, the DMSO- and WX106-treated samples at each temperature were collected respectively, centrifuged at 4° C. for 20 min, and the concentration of BCA protein (Thermo) was quantified; at the same time, Western blot was performed to detect the changes of CRBN (Anti-CRBN antibody, Sigma Company, HPA045910) protein content. […]
# CRBN [3] = biological target: T2, CRBN; assay: Protein degradation competition experiment (CC885-induced GSPT1 degradation); assay type: cell-based; design: endogenous in cells; host or cells: MOLT-4; details: MOLT-4 cells, co-treated with 10 nM CC885, 4 hours, Western blot
# Method: MOLT-4 cells were co-treated with 0.1, 1 and 10 μM of WX106 and 10 nM of CC885 for 4 hours, and the protein level of GSPT1 was then detected by Western blot, with Poma (Pomalidomide, Selleck, S1567) acting as the positive control in the experiment. Cells were collected and denatured in protein loading buffer (50 mM Tris-HCL 2% SDS, 0.025% BPB, 1% β-mercaptoethanol, 10% glycerol) at 98° C. for 10 min. Proteins were separated by SDS-PAGE and transferred to a PVDF membrane (Millipore, IPVH00010), blocked with 5% skim milk (dissolved in TBST buffer), incubated with a primary antibody overnight at 4° C., and then incubated with a secondary antibody (Anti-rabbit IgG, HRP-linked Antibody, Cell Signaling, 7074S) at room temperature for 1 hour, and the bands on the membrane were detected by chemiluminescence (ECL chemiluminescence kit, Beyotime Biotechnology, P0018AM).
# Wee1 [4] = biological target: T3, Wee1 (Homo sapiens, UniProt P30291); assay: Label-free quantitative mass spectrometry for proteomic analysis; assay type: cell-based; design: endogenous in cells; host or cells: MOLT-4; details: MOLT-4, 10 μM WX106 (10 μM MG132 where added), 6 hours, replicates
# Method: There are three treatment methods for the selected MOLT-4 cells; one is to directly add DMSO as a control, the other is to add 10 μM WX106, and the third is to add 10 μM WX106 and 10 μM MG132 (proteasome inhibitor; APEXBIO, A2585 and MG132 are capable of blocking ubiquitin-mediated protein degradation). Two replicates were prepared for the 10 μM WX106 plus 10 μM MG132 group, and three replicates were prepared for the DMSO control group and 10 μM WX106 administration group, respectively. The drug treatment time for MOLT-4 was 6 hours. Mass spectrometry samples were prepared based on the basic steps of urea cleavage, reductive alkylation, desalting, and lyophilization. The prepared samples were subjected to two-hour gradient analysis on a Q Exactive HF mass spectrometer, followed by data analysis.
# Wee1 [5] = biological target: T3, Wee1; assay: Detection of protein degradation by the drug (Western blot); assay type: cell-based; design: endogenous in cells; host or cells: MOLT-4, U87-MG; details: 6 hours
# Method: Cells were seeded in 6-well plates at a density of about 70%, and the compound WX106 of different concentrations (concentrations shown in the accompanying drawings) were added for 6 hours of treatment, and then the whole-cell lysates were collected for target protein detection. The antibody used was: (Wee1 (D10D2) Rabbit mAb, Cell Signaling, 13084S). To investigate whether drug-induced protein degradation occurs via the ubiquitin pathway, MG132 was used to block ubiquitin-mediated protein degradation. This method was also applied to 293T, MOLT-4, U87-MG, HCT116, and LN-229.
# FIG. 13 and FIG. 14 show the effect of WX106 on Wee1 protein expression in MOLT-4 cells.
smiles,measurement,setting,value
Cc1ccc(C(=O)Nc2ccc3occ(C4CCC(=O)NC4=O)c3c2)cc1Cl (stereo not shown) [WX106],clone formation,[1],inhibits clone formation
same,sensitivity of cells to WX106 after CRBN knockout,Hep3B cells,significantly reduced
same,sensitivity of cells with normal CRBN expression (growth curve),Hep3B and SNU182 cells; Hep3B and SNU182,very sensitive
same,growth rate of low-CRBN-expression cells compared with the solvent group,Hep3B and SNU182 cells; Hep3B and SNU182 CRBN knockout pools,no significant difference
same,pro-degradation effect on CK1α,CK1α,no significant pro-degradation effect
same,CRBN protein abundance after heat shock,CRBN [2],significantly increased
same,effect on degradation of GSPT1 induced by CC885,CRBN [3],reversed
same,Wee1 LFQ intensity,Wee1 [4],0
same,pro-degradation effect on Wee1,Wee1 [5]; HCT116 cells,weak pro-degradation effect
same,pro-degradation effect on Wee1,Wee1 [5]; U87-MG cells,significant pro-degradation effect
